Legend:
[1] = test system: Breast-22 (BR22) TNBC PDX; experiment: In vivo efficacy, PDX tumor growth; design: species or system human tumor in NOD/SCID mice
Description: (§1) The effects of anti-PTK7 antibody-drug conjugates were further evaluated on the in vivo growth of human tumor patient-derived xenografts (PDX). Primary tumor resection samples were procured from clinical sites following Institutional Review Board for the Protection of Human Subjects approval and in accordance with HIPAA regulations. Tumor fragments were stored and shipped in Hypothermasol (Biolife Solutions) on ice and were embedded in Matrigel (BD) containing a proprietary mix of growth factors and implanted subcutaneously into the mammary fatpad of female NOD/SCID mice within 24 hours of resection. Mice were monitored for health status daily and for tumor growth initially by visual inspection twice per week. Once the tumors were palpable, measurements of tumor volume began to track tumor growth and estimate cell doubling time. Tumor volume was estimated using the equation V=(A*B^2)/2 where A is the long axis and B is the short axis. When tumors reached a volume of 500 mm^3 to 1,500 mm^3, they were harvested for study and for re-transplant as a patient-derived xenograft (PDX). Depending on the line, mechanical and/or chemical dissociation can be used to separate the individual cells for passage. Live cells were inoculated into naïve animals with 10,000 to 50,000 cells per animals
(§2) For efficacy studies, tumors were harvested from passaging studies and cells were dissociated into single cell suspension. Preparations were counted for live cells using Trypan blue exclusion and 10,000 to 50,000 cells were inoculated per mouse in Matrigel. […] Tumor growth was initially followed by palpability with measurements beginning once tumor volumes reached about 30 mm^3. Studies were randomized based on tumor size once a cohort of tumor-bearing mice reached 140 mm^3 to 180 mm^3. Animals were dosed by intraperitoneal injection twice a week for two weeks (q4dx4). Study groups were followed until individual mice or entire group tumor measurements reached 1200 mm^3 when sacrifice was indicated in accordance with IACUC protocol. For selected dosing studies, pharmacokinetic submandibular bleeds were performed at 2 hours, 36 hours and 72 hours. A volume of 10 μL of blood was immediately pipetted into 90 μL of HBS-P (GE Healthcare). Samples were stored at −80° C. prior to analysis. For each tumor measurement the tumor volume±standard error of the mean (SEM) is provided. GT=Group Terminated due to large tumor size.
(§3) Animals were dosed every four days for four cycles (Q4Dx4) by intraperitoneal injection except the BR5 study which was by intravenous injection on the same schedule. Tumor measurements were recorded one or two times per week using digital calipers and tumor volume was estimated using the equation V=(A×B^2)/2 where A is the long axis and B is the short axis. Animal body weights were measured and recorded at least once a week. Study groups were followed until individual mice or entire group tumor measurements reached 1200 mm^3 at which point sacrifice was indicated in accordance with IACUC protocol. For the BR5 study, animals were sacrificed once tumor volume approached 15% of the body weight at staging in accordance with IACUC protocol.
(§4) Tumor growth inhibition (TGI) was calculated using the equation % TGI=[1−(mean tumor volume of treated)/(mean tumor volume of vehicle)]. […] Tumor regression was defined as a reduction in mean tumor volume after dosing. In cases where tumors regressed, Time To Progression (TTP) indicates the number of days between the first does and the time at which mean tumor volume increased from the previous measurement to a statistically significant degree.

[2] = test system: Breast-31 (BR31) TNBC PDX; experiment: In vivo efficacy, PDX tumor growth; design: species or system human tumor in NOD/SCID mice
Description: as §1, §2, §3, §4

[3] = test system: Breast-13 (BR13) triple-negative breast cancer (TNBC) PDX; experiment: In vivo efficacy, PDX tumor growth; design: species or system human tumor in NOD/SCID mice; details: 1 mg/kg
Description: as §1, §2, §3
(§5) Tumor growth inhibition (TGI) was calculated using the equation % TGI=[1−(mean tumor volume of treated)/(mean tumor volume of vehicle)]. TGI was calculated at the latest possible time point, which was typically the last measurement before the control group was discontinued as described above. Tumor regression was defined as a reduction in mean tumor volume after dosing. In cases where tumors regressed, Time To Progression (TTP) indicates the number of days between the first does and the time at which mean tumor volume increased from the previous measurement to a statistically significant degree.

[4] = test system: non-small cell lung cancer-176 (LU176) PDX; experiment: In vivo efficacy, PDX tumor growth; design: species or system human tumor in NOD/SCID mice; details: 5 mg/kg
Description: as §1, §2, §3, §5

BR13 TNBC breast tumors = experiment: Tumor-initiating cell (TIC) frequency by limit dilution analysis after in vivo treatment; design: species or system human tumor in mice; details: for # Animals with tumors: 20 mpk
Procedure: To determine whether anti-PTK7 antibody-drug conjugate treatments reduced tumor-initiating cell (TIC) frequency in tumors, BR13 TNBC breast tumors were treated with 4 mg/kg hu24-vc0101 ADC, 4 mg/kg control IgG ADC, or 20 mg/kg docetaxel chemotherapy twice weekly for a total of 3 doses (Days 0, 3 & 7). Live, residual human tumor cells (i.e. hESA^+ mCD45^− mH-2Kd^−) were isolated from dissociated tumors at day 10 and re-implanted into naïve animals in a limit dilution analysis (LDA). Resulting tumor incidence was monitored for up to 40 weeks post-transplant. The day of tumor harvest (day 10) and serial transplantation was chosen based on when tumors were starting to regress following hu24-vc0101 exposure. Tumors were dissociated and stained with anti-human ESA, anti-mouse CD45, and anti-mouse H-2Kd antibodies. Three tumors per treatment group were pooled, and live human tumor cells were sorted by flow cytometry. Groups of 10 mice were injected with either 293, 73, 37 or 15 tumor cells sorted from control IgG ADC treated tumors; 159, 90, 40 or 10 tumor cells sorted from hu24-vc0101 treated tumors; or 257, 33 or 15 tumor cells sorted from docetaxel-treated tumors. Tumors in recipient mice were measured weekly and tumors that exceeded 200 mm^3 in recipient mice were scored as positive. Using Poisson distribution statistics, via L-Calc software (Stemcell Technologies, Vancouver, BC), injected cell doses of recipients with and without tumors by 40 weeks post-transplant were used to calculate the frequency of TIC after each treatment.

[5] = test system: Breast-64 (BR64) TNBC PDX; experiment: In vivo efficacy, PDX tumor growth; design: species or system human tumor in NOD/SCID mice; details: 20 mg/kg
Description: as §1, §2, §3, §5

[6] = test system: non-small cell lung cancer-135 (LU135) PDX; experiment: In vivo efficacy, PDX tumor growth; design: species or system human tumor in NOD/SCID mice; details: 20 mg/kg
Description: as §1, §2, §3, §5

Compound: COc1cccc2c1C(=O)c1c(O)c3c(c(O)c1C2=O)C[C@@](O)(C(=O)CO)C[C@@H]3O[C@H]1C[C@H](N)[C@H](O)[C@H](C)O1 [Doxorubicin, doxorubicin, reference compound]
- tumor volume ± SEM ([1]; Day 0, 1.5 mg/kg): 297 ± 17 mm^3
- tumor volume ± SEM ([1]; Day 14, 1.5 mg/kg): 641 ± 39 mm^3
- tumor volume ± SEM ([2]; 1.5 mg/kg, Day 0): 160 ± 11 mm^3
- tumor volume ± SEM ([2]; 1.5 mg/kg, Day 7): 304 ± 20 mm^3
- tumor volume ± SEM ([2]; 1.5 mg/kg, Day 28): 759 ± 111 mm^3
- tumor volume ± SEM ([3]; Day 0): 156 ± 13 mm^3
- tumor volume ± SEM ([3]; Day 7): 219 ± 29 mm^3
- tumor volume ± SEM ([3]; Day 14): 295 ± 39 mm^3
- tumor volume ± SEM ([3]; Day 21): 353 ± 45 mm^3
- tumor volume ± SEM ([3]; Day 28): 432 ± 50 mm^3
- tumor volume ± SEM ([3]; Day 35): 696 ± 84 mm^3
- tumor volume ± SEM ([3]; Day 42): 1001 ± 159 mm^3

Compound: N.N.[Cl][Pt][Cl] [cisplatin, reference compound]
- tumor volume ± SEM ([4]; Day 0): 259 ± 26 mm^3
- tumor volume ± SEM ([4]; Day 7): 124 ± 30 mm^3
- tumor volume ± SEM ([4]; Day 14): 97 ± 22 mm^3
- tumor volume ± SEM ([4]; Day 21): 102 ± 24 mm^3
- tumor volume ± SEM ([4]; Day 28): 179 ± 71 mm^3
- tumor volume ± SEM ([4]; Day 35): 207 ± 69 mm^3
- tumor volume ± SEM ([4]; Day 42): 297 ± 97 mm^3
- tumor volume ± SEM ([4]; Day 49): 619 ± 262 mm^3

Compound: CC(=O)O[C@@]12CO[C@@H]1C[C@H](O)[C@@]1(C)C(=O)[C@H](O)C3=C(C)[C@@H](OC(=O)[C@H](O)[C@@H](NC(=O)OC(C)(C)C)c4ccccc4)C[C@@](O)([C@@H](OC(=O)c4ccccc4)[C@H]21)C3(C)C [docetaxel, reference compound]
- TIC frequency, fold lower than in control IgG ADC treated tumors (BR13 TNBC breast tumors; BR13, 20 mg/kg, Days 0, 3 & 7, tumors harvested day 10, p=0.09): 2.1 fold
- # Animals with tumors (BR13 TNBC breast tumors; Group C1, 257 cells implanted per animal, 9 animals in group): 8
- # Animals with tumors (BR13 TNBC breast tumors; Group C2, 33 cells implanted per animal, 8 animals in group): 1
- # Animals with tumors (BR13 TNBC breast tumors; Group C3, 15 cells implanted per animal, 6 animals in group): 0
- tumor volume ± SEM ([1]; 20 mg/kg, Day 0): 182 ± 21 mm^3
- tumor volume ± SEM ([1]; 20 mg/kg, Day 7): 154 ± 23 mm^3
- tumor volume ± SEM ([1]; 20 mg/kg, Day 14): 107 ± 51 mm^3
- tumor volume ± SEM ([1]; 20 mg/kg, Day 21): 218 ± 98 mm^3
- tumor volume ± SEM ([1]; 20 mg/kg, Day 28): 418 ± 165 mm^3
- tumor volume ± SEM ([1]; 20 mg/kg, Day 35): 1191 ± 264 mm^3
- tumor volume ± SEM ([2]; 20 mg/kg, Day 0): 259 ± 47 mm^3
- tumor volume ± SEM ([2]; 20 mg/kg, Day 7): 331 ± 70 mm^3
- tumor volume ± SEM ([2]; 20 mg/kg, Day 14): 371 ± 82 mm^3
- tumor volume ± SEM ([2]; 20 mg/kg, Day 21): 451 ± 91 mm^3
- tumor volume ± SEM ([2]; 20 mg/kg, Day 28): 510 ± 103 mm^3
- tumor volume ± SEM ([2]; 20 mg/kg, Day 35): 614 ± 117 mm^3
- tumor volume ± SEM ([2]; 20 mg/kg, Day 42): 790 ± 117 mm^3
- tumor volume ± SEM ([2]; 20 mg/kg, Day 49): 837 ± 126 mm^3
- tumor volume ± SEM ([2]; 20 mg/kg, Day 63): 1131 ± 148 mm^3
- tumor volume ± SEM ([2]; 20 mg/kg, Day 70): 1317 ± 182 mm^3
- tumor volume ± SEM ([5]; Day 0): 543 ± 46 mm^3
- tumor volume ± SEM ([5]; Day 7): 1112 ± 97 mm^3
- tumor volume ± SEM ([5]; Day 14): 1805 ± 206 mm^3

Compound: CC(=O)O[C@H]1C(=O)[C@@]2(C)[C@H]([C@H](OC(=O)c3ccccc3)[C@]3(O)C[C@H](OC(=O)[C@H](O)[C@@H](NC(=O)c4ccccc4)c4ccccc4)C(C)=C1C3(C)C)[C@]1(OC(C)=O)CO[C@@H]1C[C@@H]2O [paclitaxel, reference compound]
- tumor volume ± SEM ([6]; Day 0): 175 ± 24 mm^3
- tumor volume ± SEM ([6]; Day 7): 77 ± 13 mm^3
- tumor volume ± SEM ([6]; Day 14): 58 ± 12 mm^3
- tumor volume ± SEM ([6]; Day 21): 60 ± 11 mm^3
- tumor volume ± SEM ([6]; Day 28): 93 ± 20 mm^3
- tumor volume ± SEM ([6]; Day 35): 110 ± 31 mm^3
- tumor volume ± SEM ([6]; Day 42): 184 ± 48 mm^3
- tumor volume ± SEM ([6]; Day 49): 284 ± 78 mm^3
- tumor volume ± SEM ([6]; Day 56): 384 ± 106 mm^3
- tumor volume ± SEM ([6]; Day 63): 538 ± 178 mm^3
- tumor volume ± SEM ([6]; Day 70): 667 ± 174 mm^3
- tumor volume ± SEM ([6]; Day 77): 724 ± 171 mm^3
